In the NIST ThermoML archive (doi:10.1021/acs.jced.9b00441):
± gives the expanded uncertainty stated by the source.

Key:
[1] = refractive index (Na D-line) (dimensionless); conditions: 101.33 kPa, Liquid, Standard Abbe refractometry
[2] = Liquid; for mass density: 101.33 kPa, Vibrating tube method; for vapor or sublimation pressure: Closed cell (Static) method

Structure (SMILES)	mass density ([2]; 293.15 K) [kg/m3]	mass density ([2]; 298.15 K) [kg/m3]	refractive index ([1]; 293.15 K)	also measured
CCCCCC [hexane]	–	654 ± 1	–	refractive index ([1]; 298.15 K): 1.375 ± 0.001
C1CCCCC1 [cyclohexane]	–	775 ± 1	1.423 ± 0.001	–
CC1CCCCC1 [methylcyclohexane]	769 ± 1	–	1.423 ± 0.001	–
FC(F)=C(F)C(F)(F)F [hexafluoropropene]	–	–	–	vapor or sublimation pressure ([2]; 302.94 K): 838 ± 7 kPa; vapor or sublimation pressure ([2]; 312.91 K): 1094 ± 7 kPa; vapor or sublimation pressure ([2]; 322.94 K): 1407 ± 8 kPa; vapor or sublimation pressure ([2]; 332.94 K): 1783 ± 8 kPa; vapor or sublimation pressure ([2]; 342.92 K): 2225 ± 8 kPa

The next lines start with results.

mass density ([2]; 293.15 K) [kg/m3]	Structure (SMILES)	mass density ([2]; 298.15 K) [kg/m3]	refractive index ([1]; 293.15 K)	also measured
1580 ± 2	OCC(F)(F)C(F)(F)C(F)(F)F [2,2,3,3,4,4,4-heptafluorobutanol]	–	1.264 ± 0.001	–
855 ± 1	CC1CCCO1 (stereo not given) [2-methyltetrahydrofuran]	–	–	refractive index ([1]; 294.15 K): 1.405 ± 0.001
